Experimental data reported in ChEMBL document CHEMBL3351387, “Bioisosteric replacement of an acylureido moiety attached to an indolin-2-one scaffold with a malonamido or a 2/4-pyridinoylamido moiety produces a selectively potent Aurora-B inhibitor” (Eur J Med Chem, 2014).
pIC50: −log10 of the molar value.

Legend:
[1] = system: Vero; experiment: Cytotoxicity against african green monkey Vero cells; assay type: cell-based; details: chlorocebus sabaeus
[2] = Half life in rat plasma at 2 mg/kg, iv after 24 hrs by LC-ESI-MS/MS method; assay type: ADME, organism-based; design: dose 2 mg/kg, route intravenous
[3] = system: Rattus norvegicus; experiment: AUC (0 to 24 hrs) in rat plasma at 2 mg/kg, iv after 24 hrs by LC-ESI-MS/MS method; assay type: ADME, organism-based; design: time < 24 hr, dose 2 mg/kg, route intravenous; details: in vivo
[4] = system: A549; experiment: Antimigratory activity against human A549 cells assessed as inhibition of cell migration after 8 to 16 hrs by scratch wound model assay
[5] = Clearance in rat at 2 mg/kg, iv after 24 hrs by LC-ESI-MS/MS method; assay type: ADME, organism-based; design: dose 2 mg/kg, route intravenous; details: in vivo
[6] = target: Cytochrome P450 2C9 (Homo sapiens, UniProt P11712); experiment: Inhibition of CYP2C9 (unknown origin) using Vivid OOMR substrate; assay type: ADME
[7] = Plasma concentration rat at 2 mg/kg, iv after 24 hrs by LC-ESI-MS/MS method; assay type: ADME, organism-based; design: dose 2 mg/kg, route intravenous
[8] = target: Cytochrome P450 3A4 (Homo sapiens, UniProt P08684); experiment: Inhibition of CYP3A4 (unknown origin) using Vivid OOMR substrate; assay type: ADME
[9] = Plasma concentration rat at 2 mg/kg, iv after 5 mins by LC-ESI-MS/MS method; assay type: ADME, organism-based; design: dose 2 mg/kg, route intravenous
[10] = system: A549; experiment: Anti-invasive activity against human A549 cells assessed as inhibition of cell invasion by transwell invasion assay
[11] = Volume of distribution at steady state in rat at 2 mg/kg, iv after 24 hrs by LC-ESI-MS/MS method; assay type: ADME, organism-based; design: dose 2 mg/kg, route intravenous; details: in vivo, read-out: Vdss
[12] = system: A549; experiment: Cytotoxicity against human A549 cells by SRB assay; assay type: cell-based
[13] = Antitumor activity against human HuH7 cells xenografted in po dosed SCID mouse assessed as inhibition of tumor growth at 2.5 mg/kg, iv qd measured on day 14; assay type: functional; details: Huh-7, 336 h
[14] = system: HepG2; experiment: Cytotoxicity against human HepG2 cells by SRB assay; assay type: cell-based
[15] = target: Cytochrome P450 2C19 (Homo sapiens, UniProt P33261); experiment: Inhibition of CYP2C19 (unknown origin) using 3-Cyano-7-ethoxycoumarin substrate; assay type: ADME
[16] = Antitumor activity against human HuH7 cells xenografted in iv dosed SCID mouse assessed as inhibition of tumor growth at 5 mg/kg, iv qd for 14 days measured on day 9; details: Huh-7, iv
[17] = Antitumor activity against human HuH7 cells xenografted in po dosed SCID mouse assessed as inhibition of tumor growth at 2.5 mg/kg, iv qd for 14 days measured on day 9; assay type: functional; details: Huh-7

Cytochrome P450 2C9, sequence (P11712 whole entry): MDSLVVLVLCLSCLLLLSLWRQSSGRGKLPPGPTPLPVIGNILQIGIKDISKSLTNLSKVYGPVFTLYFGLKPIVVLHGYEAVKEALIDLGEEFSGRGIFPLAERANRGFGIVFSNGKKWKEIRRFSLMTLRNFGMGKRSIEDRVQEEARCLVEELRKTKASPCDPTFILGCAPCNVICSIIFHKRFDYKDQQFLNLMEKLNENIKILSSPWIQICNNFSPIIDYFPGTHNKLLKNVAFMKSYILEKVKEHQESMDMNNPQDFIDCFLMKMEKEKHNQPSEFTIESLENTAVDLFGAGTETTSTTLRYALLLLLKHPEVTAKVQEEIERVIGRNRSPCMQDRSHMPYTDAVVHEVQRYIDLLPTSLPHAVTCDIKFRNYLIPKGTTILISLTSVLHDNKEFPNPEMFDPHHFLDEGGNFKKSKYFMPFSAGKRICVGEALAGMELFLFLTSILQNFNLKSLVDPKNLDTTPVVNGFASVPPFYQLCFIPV
Cytochrome P450 2C19, sequence (P33261 whole entry): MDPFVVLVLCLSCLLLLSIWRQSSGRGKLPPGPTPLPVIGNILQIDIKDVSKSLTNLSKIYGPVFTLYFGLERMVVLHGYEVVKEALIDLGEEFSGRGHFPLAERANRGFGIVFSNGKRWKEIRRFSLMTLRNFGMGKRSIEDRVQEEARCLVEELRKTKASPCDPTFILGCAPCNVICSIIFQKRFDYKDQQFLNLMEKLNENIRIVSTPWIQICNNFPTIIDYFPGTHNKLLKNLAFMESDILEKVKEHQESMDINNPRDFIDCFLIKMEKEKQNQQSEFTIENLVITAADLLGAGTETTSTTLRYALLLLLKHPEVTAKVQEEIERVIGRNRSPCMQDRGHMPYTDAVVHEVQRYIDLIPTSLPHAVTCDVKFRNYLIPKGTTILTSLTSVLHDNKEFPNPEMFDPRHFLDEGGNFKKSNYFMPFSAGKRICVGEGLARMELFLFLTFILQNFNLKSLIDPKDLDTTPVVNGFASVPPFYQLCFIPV
Cytochrome P450 3A4, sequence (P08684 whole entry): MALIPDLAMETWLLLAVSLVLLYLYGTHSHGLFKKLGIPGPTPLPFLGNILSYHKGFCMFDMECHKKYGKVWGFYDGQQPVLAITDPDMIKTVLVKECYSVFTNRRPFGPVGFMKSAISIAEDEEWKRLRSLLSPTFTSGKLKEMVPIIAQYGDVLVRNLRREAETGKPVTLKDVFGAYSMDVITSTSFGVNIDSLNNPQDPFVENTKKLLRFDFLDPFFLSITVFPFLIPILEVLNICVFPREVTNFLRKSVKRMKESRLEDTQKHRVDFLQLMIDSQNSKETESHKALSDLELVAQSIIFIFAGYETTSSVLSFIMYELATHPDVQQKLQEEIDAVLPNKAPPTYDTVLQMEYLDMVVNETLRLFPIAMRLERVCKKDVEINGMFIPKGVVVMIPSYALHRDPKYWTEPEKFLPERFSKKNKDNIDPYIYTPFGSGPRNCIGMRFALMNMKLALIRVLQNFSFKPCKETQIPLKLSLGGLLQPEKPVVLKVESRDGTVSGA

- half-life [2]: 11.8 h
- AUC [3]: 3660 ng·h/mL
- pIC50 [4]: 5.39
- clearance [5]: 9.41 mL/min/kg
- pIC50 [6]: 7.40
- concentration at 24 h [7]: 10 ng/mL
- pIC50 [8]: < 5.00
- concentration at 5 min [9]: 4790 ng/mL
- pIC50 [10]: 5.49
- Vd [11]: 9.34 L/kg
- pIC50 [15]: 5.46
Structure (SMILES): O=C1Nc2cc(NC(=O)c3c[nH]cc(-c4ccccc4F)c3=O)ccc2/C1=C/c1ccc[nH]1
- Activity [1]: Non-toxic
- pIC50 [12]: 6.30
- inhibition in vivo at 2.5 mg/kg [13]: 38%
- pIC50 [14]: 6.22
- inhibition in vivo at 5 mg/kg [16]: 61%
- inhibition in vivo at 2.5 mg/kg [17]: 56%
